This is an account of results in patent US10344071B2, “Identification of novel anti-fibrotic peptide in C-terminal region of the MET receptor tyrosine kinase” (MUSC Foundation for Research Development, priority 2015, dated 2019).

Series [1] concerns normal LF transfected with MET WT or MET D1398G. Nature of the series: Collagen, SMA, CTGF in transfected TGFβ-stimulated normal lung fibroblasts, Western blot. In kind it is cell-based, human. The following applies: 48 hours. As for the experimental part: FIG. 3, comprising FIG. 3A through FIG. 3D, depicts expression of type I collagen, SMA, and CCN2 in normal lung fibroblasts (LF) transfected with MET WT and MET D1398G. Transfected […] lung fibroblasts were serum-starved for 24 hours followed by incubation for 48 hours with recombinant TGFβ (5 ng/ml) and/or HGF (50 ng/ml). FIG. 3A depicts that the cells were collected with lysis buffer and analyzed by Western blot with indicated antibodies including MET as a transfection efficiency control and anti-β-actin antibody as a loading control. FIG. 3B through FIG. 3D depict densitometric analysis of immunoblots for collagen, SMA and CCN2 respectively. Values are the mean and SD from three independent experiments.
(§1) Cells were collected and analyzed by immunoblotting as previously described (Bogatkevich et al., J Biol Chem. 2001, 276:45184-45192; Bogatkevich et al., Arthritis Rheum. 2007, 56:3468-3477). Phosphorylation of MET was analyzed using anti-phospho-c-Met [pYpYpY^1230/1234/1235], pY^1349, and pY^1356 antibodies (BioSource International, Inc., Camarillo, Calif.). Total MET was immunobloted using anti-MET (C12) (Santa Cruz Biotechnology, Santa Cruz, Calif.) and anti-MET (25H2) (Cell Signaling, Danvers, Mass.). […]
(In general: In western blotting, separated proteins are transferred to a membrane and probed.)

A further series has as its system Ras. The series can be described thus: Ras Activity Assay (G-LISA, Ras-GTP). In kind it is cell-based, human. The settings on record: 50 ng/ml; LF and AEC transfected with MET WT. The method, then:
(§2) FIG. 4, comprising FIG. 4A through FIG. 4D, depicts the effect of HGF on Ras activation and Erk1/2 phosphorylation in lung fibroblasts (LF) and alveolar epithelial cells (AEC). FIG. 4A depicts HGF-induced Erk1/2 phosphorylation in LF and AEC transfected with MET WT and MET D1398G was determined in cells treated with HGF (50 ng/ml) for 10 min. Cell extracts were immunoblotted with anti-phospho-Erk1/2 or anti-Erk1/2, anti-MET, and anti-β-actin antibodies. FIG. 4B depicts densitometric analysis of phospho-Erk1/2 immunoblots from three independent experiments. FIG. 4C and FIG. 4D depict Ras activity in LF and AEC respectively, transfected with MET WT and MET D1398G treated with and without HGF (50 ng/ml) for 10 min.
G-LISA Kit (Cytoskeleton Inc., Denver, Colo.) was used to measure endogenous Ras-GTP levels. […] Bound Ras-GTP levels were determined by anti-Ras primary antibody followed by horseradish peroxidase-conjugated secondary antibody. A peroxidase substrate was applied, and the plates were read at 450 nm on a spectrophotometer.
HGF-induced phosphorylation of Erk1/2 is mediated by Ras (Campbell, et al., Oncogene, 1998, 17:1395-413). To investigate whether D1398G mutation affects MET-dependent Ras activation, Ras-GTP in LF and in AEC transfected with MET WT and with MET D1398G was measured.

For series [2], the system named is scleroderma LF transfected with MET WT or MET D1398G. Nature of the series: Collagen, SMA, CTGF in transfected scleroderma lung fibroblasts, Western blot. The format is cell-based, human. The settings on record: 50 ng/ml for 48 hours. As for the experimental part: FIG. 2, comprising FIG. 2A and FIG. 2B, depicts Expression of type I collagen, SMA, and CCN2 in scleroderma lung fibroblasts (LF) transfected with MET WT and MET D1398G. FIG. 2A depicts transfected SSc LF were serum-starved for 24 hours followed by incubation for 48 hours with recombinant HGF (50 ng/ml). The cells were collected with lysis buffer and analyzed by Western blot with indicated antibodies including MET as a transfection efficiency control. Anti-β-actin antibody was used as a loading control. FIG. 2B depicts quantitative results of densitometric analysis of immunoblots. Values are the mean and SD from four independent experiments.
as §1, with “Mass.). Anti-type I collagen antibody (Southern Biotechnology, Birmingham, Ala.)), anti-CTGF antibody (Santa Cruz Biotechnology, Santa Cruz, Calif.), and anti-smooth-α-actin antibody (Sigma, St. Louis, Mo.) were also used.” for “Mass.).”

The next series addresses T1, MET D1398G (Homo sapiens, UniProt P08581, D1380G).
T1 construct: The wild type (WT) full-length c-MET cDNA in pLXSN; expressed in transfected cells; host or cells: lung fibroblasts (LF) and A549 alveolar epithelial cells, infected with recombinant adenovirus (pAdTrack-CMV/AdEasy)
The series can be described thus: HGF-induced MET tyrosine phosphorylation in transfected LF and AEC. The settings on record: HGF 50 ng/ml. The format is cell-based. The method, then:
(§3) FIG. 1, comprising FIG. 1A and FIG. 1B, depicts MET tyrosine phosphorylation in lung fibroblasts (LF) and alveolar epithelial cells (AEC). FIG. 1A depicts a time course of MET WT and MET D1398G tyrosine phosphorylation as determined in LF and AEC incubated with HGF (50 ng/ml) for various time points. Cell extracts were immunoblotted with anti-phospho-MET or anti-MET polyclonal antibodies (see details in Materials and Methods). FIG. 1B depicts quantitative results of densitometric analysis of immunoblots. Values are the mean and SD from three independent experiments.
(§4) Cells were collected and analyzed by immunoblotting as previously described (Bogatkevich et al., J Biol Chem. 2001, 276:45184-45192; Bogatkevich et al., Arthritis Rheum. 2007, 56:3468-3477). Phosphorylation of MET was analyzed using anti-phospho-c-Met [pYpYpY^1230/1234/1235], pY^1349, and pY^1356 antibodies (BioSource International, Inc., Camarillo, Calif.). Total MET was immunobloted using anti-MET (C12) (Santa Cruz Biotechnology, Santa Cruz, Calif.) and anti-MET (25H2) (Cell Signaling, Danvers, Mass.). Anti-type I collagen antibody (Southern Biotechnology, Birmingham, Ala.)), anti-CTGF antibody (Santa Cruz Biotechnology, Santa Cruz, Calif.), and anti-smooth-α-actin antibody (Sigma, St. Louis, Mo.) were also used.
(§5) As an initial approach to evaluate the functional consequences of D1398G mutation, HGF-induced MET autophosphorylation was studied in LF and AEC (A549 cell line) transfected either with MET WT or D1398G mutant. MET tyrosine phosphorylation was assessed using anti-phospho-c-Met[pYpYpY^1230/1234/1235], pY^1349, and pY^1356 antibodies. Treatment with HGF induced rapid phosphorylation of MET WT at tyrosine 1230, 1234, and 1235 in both LF and AEC. Maximal phosphorylation was observed within 5 minutes of HGF treatment and decreased by 20 minutes following HGF treatment (FIG. 1). […] The time course of HGF-induced phosphorylation at tyrosine 1356 in LF resembled tyrosine 1230, 1234, and 1235 phosphorylation with maximal levels observed within 5 minutes of HGF treatment. Tyrosine 1356 phosphorylation in AEC appeared to be stronger than in LF with maximal levels observed within 20 minutes of HGF treatment.

The target of a further series is T2, MET WT (Homo sapiens, UniProt P08581).
T2 construct: The wild type (WT) full-length c-MET cDNA in pLXSN; expressed in transfected cells; host or cells: lung fibroblasts (LF) and A549 alveolar epithelial cells, infected with recombinant adenovirus (pAdTrack-CMV/AdEasy)
Described as above. The format is cell-based. The following applies: HGF 50 ng/ml. As for the experimental part:
as §3, §4, §5

The subject of a further series is Erk1/2 phosphorylation. The series can be described thus: HGF-induced Erk1/2 phosphorylation in transfected LF and AEC. In kind it is cell-based, human. The following applies: 50 ng/ml for 10 min. The method, then: as §2
The phosphorylation of p42/p44 MAPK isoforms was analyzed using anti-phospho-Erk1/2 and Erk1/2 antibodies in accordance with the manufacturer's instructions (Cell Signaling Technology, Danvers, Mass.). Immunoblots were routinely stripped and reblotted with anti-β-actin antibody (Sigma, St. Louis, Mo.) as a loading control.
To investigate whether the D1398G mutation affects MAPK signaling pathways, the Erk1/2 phosphorylation was examined. Basal and HGF-induced Erk1/2 phosphorylation were more prominent in AEC as compared with LF. […] The basal level of nonphosphorylated Erk1/2 in LF and AEC was not affected either by HGF stimulation or by transfection with D1398G mutation.

The test system of series [3] is TGFβ-stimulated lung fibroblasts. The series can be described thus: Collagen in TGFβ-stimulated lung fibroblasts, immunoblot. The format is cell-based. The following applies: 1 μg/ml for 24 h; TGFβ 5 ng/ml. As for the experimental part: FIG. 18 depicts M5 peptide inhibits collagen in TGFβ-stimulated lung fibroblasts. Cells were incubated with and without TGFβ (5 ng/ml) and M5 peptide (1 μg/ml) for 24 h and analyzed by immunoblotting using anti-collagen type I antibody. Beta-actin was used as a loading control.
A peptide containing just the M5 sequence (TRPAS (SEQ ID NO: 4)) was generated and was tested for its effect on collagen.

In series [4] the test system is bleomycin-induced pulmonary fibrosis. The following applies: mouse, in vivo.
Excerpt: FIG. 14A depicts representative histologic findings of lung inflammation and fibrosis. […] FIG. 14B depicts a quantitative evaluation of fibrotic changes (Ashcroft scores), n=32 (8 mice per group).
Mice (n=6), C57BL/6 male were used in this study. Mice were maintained in animal quarters specially designated for pathogen-free mice and were provided with food and water ad libitum. Lung injury was induced by intratracheal instillation of bleomycin (2 U/kg in saline) under isoflurane anesthesia. Control mice received same volume of saline. […] Control mice received 10 mg/kg scrambled peptide. Animals were sacrificed in 3 weeks, and lungs were harvested and processed for tissue staining.
Sacrificed mice were subjected to midline thoracotomy. […]
To evaluate the stages of lung fibrosis, multiple sections from each lung were stained with Hematoxylin and eosin (H & E staining) or with trichrome staining for collagen and other extracellular matrix proteins. Fibrosis quantification was performed by using 0 (normal) to 8 (total fibrosis) Ashcroft scale (Ashcroft, et al., J Clin Pathol, 1988, 41:467-470). Morphological changes such as the thickness of alveolar septa, accumulation of vascular component and connective tissue, infiltration of inflammatory cells were analyzed. For histological evaluation each specimens were divided in 10 non-overlapping fields and scored independently. […]

Ends that are not written are not given here.

With “HGF: recombinant hepatocyte growth factor, ligand of the MET receptor”, in series [1], the “levels of collagen, SMA and CTGF” value was “decreased the levels of collagen, SMA and CTGF”. Further, the “total Ras activity” value in the series on Ras is recorded as “significant increase in total Ras activity”. The “expression of collagen, SMA, and CTGF” value was “not in LF transfected with mutant MET D1398G” in series [2] (scleroderma LF transfected with MET D1398G); “reduced expression of collagen, SMA, and CTGF” in series [2] (scleroderma LF transfected with MET WT). Further, the “tyrosine phosphorylation of MET D1398G in contrast to MET WT” value with MET D1398G (LF and AEC) is “decreased and delayed”. Besides, the “time of maximal phosphorylation at tyrosine 1356” value with MET D1398G (MET D1398G) is 1 h; with MET WT (AEC) it was not above 20 min; in the series with MET WT (LF), not above 5 min. The “time of maximal phosphorylation at tyrosine 1230, 1234, and 1235” value in the series with MET WT (LF and AEC) is not above 5 min. For the same substance, the “HGF-induced Erk1/2 phosphorylation, MET WT compared with MET D1398G cells” value with Erk1/2 phosphorylation was “notably higher”. In addition, the Erk1/2 phosphorylation result in the series with Erk1/2 phosphorylation (LF and AEC transfected with MET WT or MET D1398G) was “further induced Erk1/2 phosphorylation”.

For “TRPAS (M5 Peptide) [C-terminal fragment of the MET receptor]”, the “level of collagen versus fibroblasts stimulated with TGFβ” value in [3] is listed as “reduced level of collagen”.

For TRPASFWETS [M10], the “cell viability measured by the ATP-dependent assay” value with cell viability is recorded as “does not affect cell viability”. Moreover, the “lung histology in control mice that received saline and peptide” value in [4] was “normal septa, vascular components, and connective tissue”.
